Assay results reported in patent US8257478B2, “Use of marine fungus originated compounds as antifouling agents” (The Hong Kong University of Science and Technology, priority 2004, dated 2012).
Values after ≈ are worked out from the molar mass of the structure shown. Where two headings read alike, the source gives them in different places.

What was measured:
Micrococcus luteus = assay: agar disc diffusion assay, inhibition zone; format: cell-based; details: 50 μg/disc, 30° C., 24 h, read-out: Inhibition Zone Width
Description: (§1) Antibacterial activity was tested against bacteria using an agar disc diffusion assay method. Sterile paper discs (6 mm i.d.) impregnated with the substance under test at a concentration of 50 μg disc^−1 were applied onto the surface of an agar plate (plastic Petri dish) inoculated with one strain with sterile forceps and gently pressed down to ensure good contact with the surface. Blank discs treated with the same volume of DMSO were added. A control disc, containing streptomycin was used. After the application of discs, the plates were incubated at 30° C. for 24 h, and then the size of the inhibition zone was measured.
as §1, with “using” for “using an”, “assay.” for “assay method.”, “disc” for “disc,”, “h. The” for “h, and then the”, “measured. The results are presented in Table 8 and Table 9 for Cyclo (D)-Pro-(D)-Phe and b3-methyl-N-(2-phenylethyl)butanamide, respectively.” for “measured.”

Moraxella phenylpyruvica = assay: agar disc diffusion assay, inhibition zone; format: cell-based; details: Psychrobacter phenylpyruvicus; 50 μg/disc, 30° C., 24 h; read-out: Inhibition Zone Width
Description: as §1
as §1, with “using” for “using an”, “assay.” for “assay method.”, “disc” for “disc,”, “h. The” for “h, and then the”, “measured. The results are presented in Table 8 and Table 9 for Cyclo (D)-Pro-(D)-Phe and b3-methyl-N-(2-phenylethyl)butanamide, respectively.” for “measured.”

[1] = tested on: Pseudoalteromonas piscida; assay: agar disc diffusion assay, inhibition zone; format: cell-based; details: 50 μg/disc, 30° C., 24 h, read-out: Inhibition Zone Width
Description: as §1
as §1, with “using” for “using an”, “assay.” for “assay method.”, “disc” for “disc,”, “h. The” for “h, and then the”, “measured. The results are presented in Table 8 and Table 9 for Cyclo (D)-Pro-(D)-Phe and b3-methyl-N-(2-phenylethyl)butanamide, respectively.” for “measured.”

Pseudoalteromonas sp. = assay: agar disc diffusion assay, inhibition zone; format: cell-based; details: 50 μg/disc, 30° C., 24 h, read-out: Inhibition Zone Width
Description: as §1
as §1, with “using” for “using an”, “assay.” for “assay method.”, “disc” for “disc,”, “h. The” for “h, and then the”, “measured. The results are presented in Table 8 and Table 9 for Cyclo (D)-Pro-(D)-Phe and b3-methyl-N-(2-phenylethyl)butanamide, respectively.” for “measured.”

Shewanella algae = assay: agar disc diffusion assay, inhibition zone; format: cell-based; details: 50 μg/disc, 30° C., 24 h, read-out: Inhibition Zone Width
Description: as §1
as §1, with “using” for “using an”, “assay.” for “assay method.”, “disc” for “disc,”, “h. The” for “h, and then the”, “measured. The results are presented in Table 8 and Table 9 for Cyclo (D)-Pro-(D)-Phe and b3-methyl-N-(2-phenylethyl)butanamide, respectively.” for “measured.”

[2] = tested on: Staphylococcus haemolyticus; assay: agar disc diffusion assay, inhibition zone; format: cell-based; details: 50 μg/disc, 30° C., 24 h, read-out: Inhibition Zone Width
Description: as §1
as §1, with “using” for “using an”, “assay.” for “assay method.”, “disc” for “disc,”, “h. The” for “h, and then the”, “measured. The results are presented in Table 8 and Table 9 for Cyclo (D)-Pro-(D)-Phe and b3-methyl-N-(2-phenylethyl)butanamide, respectively.” for “measured.”

Vibrio fluvialis = assay: agar disc diffusion assay, inhibition zone; format: cell-based; details: 50 μg/disc, 30° C., 24 h, read-out: Inhibition Zone Width
Description: as §1
as §1, with “using” for “using an”, “assay.” for “assay method.”, “disc” for “disc,”, “h. The” for “h, and then the”, “measured. The results are presented in Table 8 and Table 9 for Cyclo (D)-Pro-(D)-Phe and b3-methyl-N-(2-phenylethyl)butanamide, respectively.” for “measured.”

Vibrio harveyi = assay: agar disc diffusion assay, inhibition zone; format: cell-based; details: 50 μg/disc, 30° C., 24 h, read-out: Inhibition Zone Width
Description: as §1
as §1, with “using” for “using an”, “assay.” for “assay method.”, “disc” for “disc,”, “h. The” for “h, and then the”, “measured. The results are presented in Table 8 and Table 9 for Cyclo (D)-Pro-(D)-Phe and b3-methyl-N-(2-phenylethyl)butanamide, respectively.” for “measured.”

Vibrio sp. (NAP-4) = assay: agar disc diffusion assay, inhibition zone; format: cell-based; details: 24 h, read-out: Inhibition Zone Width
Description: as §1
as §1, with “using” for “using an”, “assay.” for “assay method.”, “disc” for “disc,”, “h. The” for “h, and then the”, “measured. The results are presented in Table 8 and Table 9 for Cyclo (D)-Pro-(D)-Phe and b3-methyl-N-(2-phenylethyl)butanamide, respectively.” for “measured.”

Loktanella hongkongensis = assay: agar disc diffusion assay, inhibition zone; format: cell-based; details: Limimaricola hongkongensis, 24 h, read-out: Inhibition Zone Width
Description: as §1, with “using” for “using an”, “assay.” for “assay method.”, “disc” for “disc,”, “h. The” for “h, and then the”, “measured. The results are presented in Table 8 and Table 9 for Cyclo (D)-Pro-(D)-Phe and b3-methyl-N-(2-phenylethyl)butanamide, respectively.” for “measured.”

Rhodovulum sp. = assay: agar disc diffusion assay, inhibition zone; format: cell-based; details: 24 h, read-out: Inhibition Zone Width
Description: as §1, with “using” for “using an”, “assay.” for “assay method.”, “disc” for “disc,”, “h. The” for “h, and then the”, “measured. The results are presented in Table 8 and Table 9 for Cyclo (D)-Pro-(D)-Phe and b3-methyl-N-(2-phenylethyl)butanamide, respectively.” for “measured.”

Vibrio alginolyticus = assay: agar disc diffusion assay, inhibition zone; format: cell-based; details: 24 h, read-out: Inhibition Zone Width
Description: as §1, with “using” for “using an”, “assay.” for “assay method.”, “disc” for “disc,”, “h. The” for “h, and then the”, “measured. The results are presented in Table 8 and Table 9 for Cyclo (D)-Pro-(D)-Phe and b3-methyl-N-(2-phenylethyl)butanamide, respectively.” for “measured.”

Vibrio furnissii = assay: agar disc diffusion assay, inhibition zone; format: cell-based; details: 24 h, read-out: Inhibition Zone Width
Description: as §1, with “using” for “using an”, “assay.” for “assay method.”, “disc” for “disc,”, “h. The” for “h, and then the”, “measured. The results are presented in Table 8 and Table 9 for Cyclo (D)-Pro-(D)-Phe and b3-methyl-N-(2-phenylethyl)butanamide, respectively.” for “measured.”

Vibrio halioticoli = assay: agar disc diffusion assay, inhibition zone; format: cell-based; details: 24 h, read-out: Inhibition Zone Width
Description: as §1, with “using” for “using an”, “assay.” for “assay method.”, “disc” for “disc,”, “h. The” for “h, and then the”, “measured. The results are presented in Table 8 and Table 9 for Cyclo (D)-Pro-(D)-Phe and b3-methyl-N-(2-phenylethyl)butanamide, respectively.” for “measured.”

Vibrio vulnificus = assay: agar disc diffusion assay, inhibition zone; format: cell-based; details: 24 h, read-out: Inhibition Zone Width
Description: as §1, with “using” for “using an”, “assay.” for “assay method.”, “disc” for “disc,”, “h. The” for “h, and then the”, “measured. The results are presented in Table 8 and Table 9 for Cyclo (D)-Pro-(D)-Phe and b3-methyl-N-(2-phenylethyl)butanamide, respectively.” for “measured.”

[3] = tested on: barnacle Balanus amphitrite larvae; assay: anti-larval settlement bioassay in 24-well plates; format: in vivo; details: for EC50: Amphibalanus amphitrite, read-out: EC50 (anti-larval settlement)
Description: Anti-larval settlement activity of 3-chloro-2,5-dihydroxy benzyl alcohol (compound 1) was conducted using 24-well polystyrene plates. Pure compound was dissolved in DMSO and added to autoclaved FSW at different concentrations. Competent Balanus amphitrites larvae (10±2 individuals) were added to each well with 1 ml testing solution in 5 replicates, and wells containing FSW (filtered seawater) served as control. The 24-well plates were incubated at 30° C. for 24 h. The percent settlement was determined by counting the number of settled larvae under a dissecting microscope. In all bioassays, FSW served as the control. Statistical calculations were performed with the SPSS (Statistical Package for the Social Sciences) software package, Version 11.
(§2) The larval bioassay was conducted according to Rittschof et al. (1994), which is incorporated by reference herein in its entirety.
(§3) The assay was conducted according to Rittschof et al. (1994). Data plotted are means+SD of five replicates.
For determining anti-larval settlement activity, adult Balanus amphitrile (Darwin) were collected from the intertidal zone in Hong Kong (22°19′N, 114°16′E). Nauplii obtained from several adults were mass-reared to cyprid stage at a density of 2 larvae ml^−1 in 0.22-μm-filtered seawater with 30 ppt salinity (FSW) using Chaetoceros gracilis Schutt as food and a rearing temperature of 28° C. Newly transformed cyprids were used for the experiment.
Anti-larval settlement activity of succinic acid against B. amphitrite was determined using 24-well polystyrene plates. Pure compound was dissolved in autoclaved FSW ranged from 60-140 μg ml^−1 for B. amphitrite. Competent larvae (15±2 individuals) were added to each well with 1 ml testing solution in 5 replicates, and wells containing FSW served as the control. The 24-well plates were incubated at 30° C. for 24 h. The percent larval settlement was determined by counting the number of settled individuals under a dissecting microscope and expressed as a proportion of the total number of larvae in the well.

in vivo = details: Balanus amphitrite (barnacle) larvae, in vivo
Description: as §2
(§4) Toxicity of cyclo (D)-Pro-(D)-Phe was determined using 24-well polystyrene plates. Pure compound was dissolved in DMSO and added to autoclaved FSW to form different concentrations. Competent Balanus amphitrites larvae (10±2 individuals) were added to each well with 1 ml testing solution in 5 replicates. The wells containing FSW served as the control. The 24-well plates were incubated at 30° C. for 24 h. The percent mortality was determined by counting the number of dead larvae under a dissecting microscope.
as §3

[4] = tested on: Balanus amphitrite larvae; assay: in vivo
Description: as §2, §4, §3

[5] = solubility in organic solvents; format: physicochemical; details: at 25° C. in methanol, ethanol, propanol, butanol
Ruegeria sp. = assay: agar disc diffusion assay, inhibition zone; format: cell-based; details: 50 μg/disc, 30° C., 24 h; read-out: Inhibition Zone Width
Description: as §1

Staphylococcus aureus = assay: agar disc diffusion assay, inhibition zone; format: cell-based; details: 50 μg/disc, 30° C., 24 h, read-out: Inhibition Zone Width
Description: as §1

[6] = Balanus amphitrite, in vivo, 24 h
[7] = ethyl acetate, acetone and acetonitrile

| Structure (SMILES) | zone of inhibition at 50 µg/disc (Micrococcus luteus) [mm] | zone of inhibition at 50 µg/disc (Moraxella phenylpyruvica) [mm] | zone of inhibition at 50 µg/disc [1] [mm] | zone of inhibition at 50 µg/disc (Pseudoalteromonas sp.) [mm] | zone of inhibition at 50 µg/disc (Shewanella algae) [mm] | zone of inhibition at 50 µg/disc [2] [mm] | zone of inhibition at 50 µg/disc (Vibrio fluvialis) [mm] | zone of inhibition at 50 µg/disc (Vibrio harveyi) [mm] | LC50 at 24 h (in vivo) [µg/mL] | zone of inhibition at 50 µg/disc (Vibrio sp. (NAP-4); 50 μg/disc, 30° C.) [mm] | EC50 ([3]; Balanus amphitrite larvae) [µg/mL] | therapeutic ratio LC50/EC50 [4, 6] | solubility [5, 7] | also measured |
| --- | --- | --- | --- | --- | --- | --- | --- | --- | --- | --- | --- | --- | --- | --- |
| CC(C)CC(=O)NCCc1ccccc1 [Compound 3, 3-methyl-N-(2-phenylethyl) butanamide] | 3.3 ± 0.6 | 0 | 1.5 | 0 | 1.3 ± 0.6 | 0.5 | 0 | 0 | 81.4 (≈ 396 µM) | – | – | – | – | zone of inhibition at 50 µg/disc (Vibrio sp. (NAP-4)): 0 mm; zone of inhibition at 50 µg/disc (Loktanella hongkongensis): 0.5 mm; zone of inhibition at 50 µg/disc (Rhodovulum sp.): 3 ± 0.5 mm; zone of inhibition at 50 µg/disc (Vibrio alginolyticus): 1.7 ± 0.6 mm; zone of inhibition at 50 µg/disc (Vibrio furnissii): 0 mm; zone of inhibition at 50 µg/disc (Vibrio halioticoli): 0 mm; zone of inhibition at 50 µg/disc (Vibrio vulnificus): 1.2 ± 0.7 mm; EC50 [3]: 36.5 µg/mL (≈ 178 µM); therapeutic ratio LC50/EC50 ([4]; Balanus amphitrite larvae): 2.23; toxic symptoms ([4]; at the concentration of 50 μg ml^−1, 24 h): did not induce any toxic symptoms; solubility ([5]; ethyl acetate acetone, chloroform, dichloromethane and acetonitrile): soluble |
| O=C1NC(Cc2ccccc2)C(=O)N2CCCC12 (centres unmarked) [Compound 2, cyclo-(Pro-Phe)] | 0.5 | 0 | 0 | 1.7 ± 0.6 | 0 | 0.8 ± 0.3 | 1.2 ± 0.7 | 0.5 | 115 (≈ 470 µM) | 1.3 ± 0.6 | 67.3 (≈ 275 µM) | 1.70 | soluble | zone of inhibition at 50 µg/disc (Loktanella hongkongensis; 50 μg/disc, 30° C.): 1.3 ± 0.6 mm; zone of inhibition at 50 µg/disc (Rhodovulum sp.; 50 μg/disc, 30° C.): 0 mm; zone of inhibition at 50 µg/disc (Vibrio alginolyticus; 50 μg/disc, 30° C.): 0 mm; zone of inhibition at 50 µg/disc (Vibrio furnissii; 50 μg/disc, 30° C.): 0 mm; zone of inhibition at 50 µg/disc (Vibrio halioticoli; 50 μg/disc, 30° C.): 0 mm; zone of inhibition at 50 µg/disc (Vibrio vulnificus; 50 μg/disc, 30° C.): 1 ± 0.1 mm |
| OCc1cc(O)cc(Cl)c1O [Compound 1, 3-chloro-2,5-dihydroxy benzyl alcohol] | 6 | 5.5 | 5 | 5.5 | 4.5 | 6 | 5.5 | 3.5 | 267 (≈ 1530 µM) | 4 | 3.5 (≈ 20 µM) | 76.2 | soluble | zone of inhibition at 50 µg/disc (Ruegeria sp.): 3.5 mm; zone of inhibition at 50 µg/disc (Staphylococcus aureus): 5.5 mm; concentration at which compound started showing anti-settlement effects ([3]; as low as): 0.1 µg/mL; barnacle larval settlement ([3]; at 5 μg ml^−1, 24 h, 60% in the control): about 10% |
